Data from patent EP1031349A1, “Use of substituted 4-biarylbutyric and 5-biarylpentanoic acid derivatives for the treatment of cerebral diseases” (Bayer Aktiengesellschaft, priority 1999, dated 2000).
Where two headings read alike, the source gives them in different places.

Tests used:
MMP-1 = target: T1, MMP-1 (Homo sapiens, UniProt P03956); assay: Automated MMP profiling assay (P218 quenched fluorescence), MMP-1; assay type: biochemical
T1 sequence (P03956 100-469): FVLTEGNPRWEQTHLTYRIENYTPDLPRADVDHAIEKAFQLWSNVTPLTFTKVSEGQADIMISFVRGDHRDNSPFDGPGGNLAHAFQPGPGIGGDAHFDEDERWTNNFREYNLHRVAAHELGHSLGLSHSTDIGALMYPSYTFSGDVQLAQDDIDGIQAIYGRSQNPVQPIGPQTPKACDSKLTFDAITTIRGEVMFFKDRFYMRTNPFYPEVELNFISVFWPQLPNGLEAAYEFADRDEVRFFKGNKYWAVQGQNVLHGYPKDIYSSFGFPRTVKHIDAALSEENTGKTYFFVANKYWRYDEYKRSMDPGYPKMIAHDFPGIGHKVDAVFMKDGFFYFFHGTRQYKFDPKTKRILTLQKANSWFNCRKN

MMP-2 = target: T2, MMP-2 (Homo sapiens, UniProt P08253); assay: Automated MMP profiling assay (P218 quenched fluorescence), MMP-2; assay type: biochemical
T2 sequence (P08253 110-660): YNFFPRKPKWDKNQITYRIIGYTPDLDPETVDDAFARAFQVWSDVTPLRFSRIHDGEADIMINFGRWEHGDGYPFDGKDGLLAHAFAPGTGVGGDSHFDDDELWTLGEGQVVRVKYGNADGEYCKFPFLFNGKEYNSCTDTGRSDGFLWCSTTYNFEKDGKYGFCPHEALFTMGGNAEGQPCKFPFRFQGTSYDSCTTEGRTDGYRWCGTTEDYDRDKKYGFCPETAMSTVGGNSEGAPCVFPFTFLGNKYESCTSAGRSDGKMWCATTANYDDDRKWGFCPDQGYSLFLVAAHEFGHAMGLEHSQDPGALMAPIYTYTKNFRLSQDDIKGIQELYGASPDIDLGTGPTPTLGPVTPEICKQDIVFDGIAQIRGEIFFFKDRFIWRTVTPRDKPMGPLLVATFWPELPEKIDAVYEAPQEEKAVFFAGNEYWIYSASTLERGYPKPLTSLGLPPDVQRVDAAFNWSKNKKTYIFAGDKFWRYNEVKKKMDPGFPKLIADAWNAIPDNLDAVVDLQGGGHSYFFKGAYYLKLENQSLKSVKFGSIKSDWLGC

MMP-3 = MMP-3 (Homo sapiens, UniProt P08254); assay: Automated MMP profiling assay (P218 quenched fluorescence), MMP-3; assay type: biochemical
MMP-3, sequence (P08254 100-274 limits assumed): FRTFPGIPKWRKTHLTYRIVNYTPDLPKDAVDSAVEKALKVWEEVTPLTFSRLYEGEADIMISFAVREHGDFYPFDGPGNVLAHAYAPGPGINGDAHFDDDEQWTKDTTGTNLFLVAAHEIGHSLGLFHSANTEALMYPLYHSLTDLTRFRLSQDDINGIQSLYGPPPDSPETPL
Description: Truncated Prostromelysin-257 is expressed in a soluble form in E.coli as described by Marcy et al., Biochemistry, 30, 6476-6483, 1991. Soluble truncated prostromelysin is purified by a modification of the monoclonal antibody affinity chromatography method described by Housley et al., J. Biol. Chem., 268, 4481-87, 1993.
This assay was originally described by Knight et al., FEBS Letters, 296, 263-266, 1992, for a related substrate. The assay is run continuously in a 3.0ml cuvette using a Perkin-Elmer LS 50 B Spectrofluorimeter at 25 ^∞C in a final volume of 2.0 mls. P218 substrate (10mM) in 100% DMSO is diluted to a final concentration of 2.0 micromolar (µM) into assay buffer: 50mM MES, pH 6.5 containing 150mM NaCl, 10mM CaCl2, 0.005% Brij-35, and 1%(v/v) DMSO. Test compounds(10mM) in DMSO are diluted in assay buffer at an initial concentration of 10 to 100 micromolar. These are diluted to a final concentration in the assay from 10 nM to 1 µM depending upon their potency previously determined in primary thiopeptilide assay described above. The reaction is initiated by the addition of recombinant stromelysin (MMP-3) at a final concentration of 1.0 nM. Upon peptide cleavage, the fluorescent MCA group is detected using an excitation wavelength of 328 nanometers and an emission wavelength of 393 nanometers. The assay is linear from 0.2 to 5nM MMP-3 concentration and percent inhibition is calculated as described above for the primary thiopeptilide assay and IC50 values are determined by a linear regression analysis of percent inhibition versus log drug concentration. The peptide sequence of the MCA substrate, hereinafter designated P218, is shown below: [formula]
This assay is run with a protocol analogous to that reported for MMP-3 inhibition using the synthetic peptide P218 and each of the three enzymes and measuring quenched fluorescence. This assay can be run with each invention compound with the three enzymes MMP-3, MMP-9 and MMP-2 in parallel as adapted for a 96-well microtitre plate using a Hamilton AT ® workstation.

MMP-9 = MMP-9 (Homo sapiens, UniProt P14780); assay: Automated MMP profiling assay (P218 quenched fluorescence), MMP-9; assay type: biochemical
MMP-9, sequence (P14780 94-707): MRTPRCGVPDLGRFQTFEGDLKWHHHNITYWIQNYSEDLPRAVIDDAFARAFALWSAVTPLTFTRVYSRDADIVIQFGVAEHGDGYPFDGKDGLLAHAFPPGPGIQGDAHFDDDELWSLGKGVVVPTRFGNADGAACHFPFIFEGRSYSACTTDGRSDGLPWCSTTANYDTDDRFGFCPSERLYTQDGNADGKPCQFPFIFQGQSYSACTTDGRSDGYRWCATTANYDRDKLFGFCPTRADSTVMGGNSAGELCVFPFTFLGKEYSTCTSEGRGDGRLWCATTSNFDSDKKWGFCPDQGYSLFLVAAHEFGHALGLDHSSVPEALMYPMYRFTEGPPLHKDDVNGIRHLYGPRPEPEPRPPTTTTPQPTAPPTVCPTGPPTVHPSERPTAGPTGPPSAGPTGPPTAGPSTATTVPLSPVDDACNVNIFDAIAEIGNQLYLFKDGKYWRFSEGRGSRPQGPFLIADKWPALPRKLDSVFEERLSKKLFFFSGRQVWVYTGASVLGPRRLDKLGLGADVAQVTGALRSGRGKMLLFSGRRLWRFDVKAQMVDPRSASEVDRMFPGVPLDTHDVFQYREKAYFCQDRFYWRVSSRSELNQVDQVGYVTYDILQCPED
Description: MMP-9 is isolated modifying the previously described procedures of Hibbs et al (J. Biol. Chem., 260, 2493-2500, 1984) and Wilhelm et al (J. Biol. Chem., 264, 17213-17221, 1989). Briefly, polymorphonuclear leukocytes (PMN) preparations are isolated as described above from 3 or more units of freshly drawn whole blood. Cells are resuspended in phosphate buffered saline (PBS) containing 100 ng/ml phorbol myristate acetate (PMA) in the presence of […] di-isopropylfluorophospate (DFP), 1 µg/ml leupeptin and aprotinin, and 1 mg/ml catalase for 1 hr at 37°C. Supernatants are collected by centrifugation (300 x g) and the samples are frozen at-70°C. All chromatographic methods are performed at 4°C. Thawed samples are concentrated 5-fold using an Amicon chamber equipped with a YM-10 membrane. The concentrate is pressure dialyzed against 0.02M Tris-HCl, 0.1 M NaCl, 1 mM CaCl2 , 1 µM ZnCl2, 0.001% Brij-35, 0.02% sodium azide (NaN3), pH 7.5 and applied to DEAE ion exchange chromatography resin which is previously equilibrated with the same buffer at a flow rate of 0.4 ml/min. The column is extensively washed with the same buffer and gelatinase is eluted as 4 ml fractions from the column with 0.02M Tris-HCl, 0.5 M NaCI, 1 mM CaCl2, 1 µM ZnCl2, 0.001% Brij-35, 0.02% NaN3, pH 7.5. Gelatinase containing fractions are observed by gelatin zymography (see below), loaded onto a gelatin agarose affinity resin and washed with the same buffer. […] The protein content associated with material is determined with a micro-BCA assay (Pierce, Rockford, IL), lyophilized and reconstituted to a desired working concentration (100 µg/ml).
This assay was originally described by Knight et al., FEBS Letters, 296, 263-266, 1992, for a related substrate. […] Upon peptide cleavage, the fluorescent MCA group is detected using an excitation wavelength of 328 nanometers and an emission wavelength of 393 nanometers. […]
This assay is run with a protocol analogous to that reported for MMP-3 inhibition using the synthetic peptide P218 and each of the three enzymes and measuring quenched fluorescence. […]

Wistar rats = assay: Subdural hematoma (SDH) model in rats, quantification of edema formation; assay type: in vivo; conditions: rat-SDH- model, dose of 0.3 mg/kg i.v., edema assessed 24 hours after surgery
Description: Wistar rats, weighting 200-250 g were used. Anaesthesia was induced with i.p. injection of 1.2 ml Ketavet (120 mg Ketamin) and 0.8 ml Rompun™ (2% Xylancin) per animal. Body temperatures were maintained at 37°C by means of a rectal thermometer and a heating system.
A midline scalp incision was made and the saggital and coronal sutures identified. A burr hole 3 mm in diameter was drilled 2 mm to the left of the saggital suture and 1 mm posterior to the coronal suture. Using an operating microscope, the dura was incised and a blunt, pre-manufactured plastic tip (ca. 6.0 mm long) was carefully inserted 0.8 mm deep into the subdural space. Rapid-curing cyanoacrylate glue (Histoacryl) was used to seal the burr hole and secure the position of the plastic tip. […]
The edema formation was assessed 24 hours after surgery. […] The wet weight of both hemispheres was determined and after drying for 24 hours at 110°C the dry weights were determined. Based on the increase in tissue water content, tissue swelling (i.e., increase in volume) may be calculated employing the following (modified) equation: (ΔDW(%))/(DWε)× 100(%Swelling) [formula] where DW % is the difference in tissue dry weight between the normal and edematous brain, and DW the dry weight (%) of the edematous brain.

Row | SMILES | Ki (MMP-1; read-out: MMP-1 Ki) | Ki (MMP-2) | Ki (MMP-3; read-out: MMP-3 Ki) | Ki (MMP-9; read-out: MMP-9 Ki) | Ki (MMP-2; read-out: MMP-2 Ki) | Ki (MMP-1) | Ki (MMP-3) | Ki (MMP-9) | reduced the increase in tissue water content (Wistar rats)
1 | CCOc1ccc(-c2ccc(C(=O)[C@H]3CC[C@@H](Sc4ccccc4)[C@@H]3C(=O)O)cc2)cc1 (racemic) [Example 1] | 3700 nM | 0.46 nM | 20 nM | 15 nM | – | – | – | – | –
2 | CCOc1ccc(-c2ccc(C(=O)CC(CCN3C(=O)c4ccccc4C3=O)C(=O)O)cc2)cc1 (racemic) [Example 3] | 3400 nM | – | 14 nM | 0.78 nM | 1.1 nM | – | – | – | –
3 | O=C(CC(CCn1nnc2ccccc2c1=O)C(=O)O)c1ccc(-c2ccc(Cl)cc2)cc1 (racemic) [Example 6] | – | – | – | – | 1.2 nM | 2400 nM | 6.2 nM | 3 nM | –
4 | O=C(CC(CCn1nnc2ccccc2c1=O)C(=O)O)c1ccc(-c2ccc(Cl)cc2)cc1 (single isomer, unassigned; (+)) [Example 5, (+)-4-(4'-Chloro-biphenyl-4-yl)-4-oxo-2-[2-(4-oxo-4H-benzo[d][1,2,3]triazin-3-yl)-ethyl]-butyricacid] | – | – | – | – | – | – | – | – | 38%
